Results reported in PubChem BioAssay (NCI).
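Test compounds were applied to cells in 96-well plates for 48 hours at 5 doses. At the GI50, growth is halved. TGI is the concentration that stops growth completely.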

How the values were obtained:
Test in all cases: NCI-60 cell line screen, 48 h
PC-3 prostate = tested on: PC-3 prostate
OVCAR-8 ovarian = tested on: OVCAR-8 ovarian
HOP-92 NSCLC = tested on: HOP-92 NSCLC
SF-268 CNS = tested on: SF-268 CNS
MALME-3M melanoma = tested on: MALME-3M melanoma
HS 578T breast = tested on: HS 578T breast
OVCAR-3 ovarian = tested on: OVCAR-3 ovarian
HCT-116 colon = tested on: HCT-116 colon
SW-620 colon = tested on: SW-620 colon
HOP-62 NSCLC = tested on: HOP-62 NSCLC
HT29 colon = tested on: HT29 colon
UACC-62 melanoma = tested on: UACC-62 melanoma
NCI-H460 lung = tested on: NCI-H460 lung
SN12C renal = tested on: SN12C renal
T-47D breast = tested on: T-47D breast
IGROV1 ovarian = tested on: IGROV1 ovarian
ACHN renal = tested on: ACHN renal
SK-OV-3 ovarian = tested on: SK-OV-3 ovarian
NCI-H522 lung = tested on: NCI-H522 lung
786-0 renal = tested on: 786-0 renal
SK-MEL-5 melanoma = tested on: SK-MEL-5 melanoma
HCT-15 colon = tested on: HCT-15 colon
NCI/ADR-RES ovarian = tested on: NCI/ADR-RES ovarian
LOX IMVI melanoma = tested on: LOX IMVI melanoma
DU-145 prostate = tested on: DU-145 prostate
SF-295 CNS = tested on: SF-295 CNS
UACC-257 melanoma = tested on: UACC-257 melanoma
SNB-75 CNS = tested on: SNB-75 CNS
MDA-N = tested on: MDA-N
EKVX NSCLC = tested on: EKVX NSCLC
SK-MEL-2 melanoma = tested on: SK-MEL-2 melanoma
M14 melanoma = tested on: M14 melanoma
COLO 205 colon = tested on: COLO 205 colon
A549 NSCLC = tested on: A549 NSCLC
OVCAR-4 ovarian = tested on: OVCAR-4 ovarian
MDA-MB-231 breast = tested on: MDA-MB-231 breast
CAKI-1 renal = tested on: CAKI-1 renal
CCRF-CEM leukemia = tested on: CCRF-CEM leukemia
SK-MEL-28 melanoma = tested on: SK-MEL-28 melanoma
KM12 colon = tested on: KM12 colon
K-562 leukemia = tested on: K-562 leukemia
BT-549 breast = tested on: BT-549 breast
SNB-19 CNS = tested on: SNB-19 CNS
HL-60(TB) leukemia = tested on: HL-60(TB) leukemia
MCF7 breast = tested on: MCF7 breast
UO-31 renal = tested on: UO-31 renal
NCI-H23 lung = tested on: NCI-H23 lung
MOLT-4 leukemia = tested on: MOLT-4 leukemia
TK-10 renal = tested on: TK-10 renal
SR leukemia = tested on: SR leukemia
RXF 393 renal = tested on: RXF 393 renal
U251 CNS = tested on: U251 CNS
RPMI-8226 leukemia = tested on: RPMI-8226 leukemia
HCC-2998 colon = tested on: HCC-2998 colon
MDA-MB-435 = tested on: MDA-MB-435
NCI-H226 lung = tested on: NCI-H226 lung
OVCAR-5 ovarian = tested on: OVCAR-5 ovarian
SF-539 CNS = tested on: SF-539 CNS
A498 renal = tested on: A498 renal

In the case of `CC1(C)OC2C(COC(c3ccccc3)(c3ccccc3)c3ccccc3)OC(c3c[nH]c4c(N)ncnc34)C2O1` (configuration not stated), the TGI (PC-3 prostate) is reported as 10.5 µM, the TGI (OVCAR-8 ovarian) is reported as 21.7 µM and the TGI (HOP-92 NSCLC) is reported as 18.5 µM. The TGI (SF-268 CNS) was 21.4 µM, the TGI (MALME-3M melanoma) was 16.8 µM and the TGI (HS 578T breast) was 28.4 µM. The TGI (OVCAR-3 ovarian) was 9.26 µM, the TGI (HCT-116 colon) was 15.9 µM and the TGI (SW-620 colon) was 14.1 µM. It also gave a TGI (HOP-62 NSCLC) of 16.1 µM, a TGI (HT29 colon) of 7.15 µM and a TGI (UACC-62 melanoma) of 4.21 µM. For the same compound, the TGI (NCI-H460 lung) was 10.5 µM, the TGI (SN12C renal) was 15.4 µM and the TGI (T-47D breast) was 17.2 µM. The TGI (IGROV1 ovarian) was 17 µM, the TGI (ACHN renal) was 13.3 µM and the TGI (SK-OV-3 ovarian) was 17.5 µM. The TGI (NCI-H522 lung) was 17.8 µM, the TGI (786-0 renal) was 4.37 µM and the TGI (SK-MEL-5 melanoma) was 3.05 µM. For the same compound, the TGI (HCT-15 colon) was 15.2 µM, the TGI (NCI/ADR-RES ovarian) was 29 µM and the TGI (LOX IMVI melanoma) was 3.26 µM. The TGI (DU-145 prostate) was 18.9 µM, the TGI (SF-295 CNS) was 7.29 µM and the TGI (UACC-257 melanoma) was 17.5 µM. The TGI (SNB-75 CNS) was 19.6 µM, the TGI (MDA-N) was 11 µM and the TGI (EKVX NSCLC) was 21.8 µM. For the same compound, the TGI (SK-MEL-2 melanoma) was 29.3 µM, the TGI (M14 melanoma) was 9.44 µM and the TGI (COLO 205 colon) was 23.9 µM. The TGI (A549 NSCLC) was 13.9 µM, the TGI (OVCAR-4 ovarian) was 23.3 µM and the TGI (MDA-MB-231 breast) was 27.4 µM.

With `O=C1Nc2c(ccc(Cl)c2Cl)/C1=C/c1cc(Br)c(O)c(Br)c1` the GI50 (PC-3 prostate) was 5.23 µM, the TGI (PC-3 prostate) was > 100 µM and the GI50 (CAKI-1 renal) was 2.59 µM. For the same compound, the TGI (CAKI-1 renal) was > 37 µM, the GI50 (OVCAR-8 ovarian) was 10 µM and the TGI (OVCAR-8 ovarian) was > 100 µM. It also gave a GI50 (HOP-92 NSCLC) of 7.17 µM, a TGI (HOP-92 NSCLC) of 62.3 µM and a GI50 (SF-268 CNS) of 14.6 µM. The TGI (SF-268 CNS) was > 100 µM, the GI50 (MALME-3M melanoma) was 2.53 µM and the TGI (MALME-3M melanoma) was 32.4 µM. For the same compound, the GI50 (HS 578T breast) was 4.32 µM, the TGI (HS 578T breast) was 46.4 µM and the GI50 (OVCAR-3 ovarian) was 3.14 µM. The TGI (OVCAR-3 ovarian) was 12 µM, the GI50 (HCT-116 colon) was 4.45 µM and the TGI (HCT-116 colon) was > 44.9 µM. For the same compound, the GI50 (SW-620 colon) was 4.67 µM, the TGI (SW-620 colon) was > 100 µM and the GI50 (CCRF-CEM leukemia) was 3.95 µM. The TGI (CCRF-CEM leukemia) was > 65.4 µM, the GI50 (SK-MEL-28 melanoma) was 7.07 µM and the TGI (SK-MEL-28 melanoma) was > 100 µM. For the same compound, the GI50 (KM12 colon) was 4.75 µM, the TGI (KM12 colon) was 40.2 µM and the GI50 (HOP-62 NSCLC) was 11.9 µM. For the same compound, the TGI (HOP-62 NSCLC) was > 68 µM, the GI50 (K-562 leukemia) was 5.57 µM and the TGI (K-562 leukemia) was > 100 µM. It also gave a GI50 (HT29 colon) of 4.05 µM, a TGI (HT29 colon) of 23.7 µM and a GI50 (BT-549 breast) of 2.92 µM. For the same compound, the TGI (BT-549 breast) was 17.5 µM, the GI50 (UACC-62 melanoma) was 2.49 µM and the TGI (UACC-62 melanoma) was 13.3 µM. It also gave a GI50 (NCI-H460 lung) of 3.13 µM, a TGI (NCI-H460 lung) of 16.9 µM and a GI50 (SN12C renal) of 10.7 µM. The TGI (SN12C renal) was > 100 µM, the GI50 (T-47D breast) was 2.99 µM and the TGI (T-47D breast) was 12.3 µM. The GI50 (SNB-19 CNS) was 4.6 µM, the TGI (SNB-19 CNS) was > 63.3 µM and the GI50 (IGROV1 ovarian) was 8.91 µM. For the same compound, the TGI (IGROV1 ovarian) was > 55.8 µM, the GI50 (ACHN renal) was 9.86 µM and the TGI (ACHN renal) was > 86.4 µM. The GI50 (SK-OV-3 ovarian) was 4.88 µM, the TGI (SK-OV-3 ovarian) was 30.4 µM and the GI50 (HL-60(TB) leukemia) was 3.01 µM. The TGI (HL-60(TB) leukemia) was > 23.8 µM, the GI50 (MCF7 breast) was 3.4 µM and the TGI (MCF7 breast) was > 71.9 µM. For the same compound, the GI50 (UO-31 renal) was 14.5 µM, the TGI (UO-31 renal) was > 49.7 µM and the GI50 (NCI-H522 lung) was 3.06 µM. The TGI (NCI-H522 lung) was > 28.6 µM, the GI50 (786-0 renal) was 6.62 µM and the TGI (786-0 renal) was 78.7 µM. For the same compound, the GI50 (NCI-H23 lung) was 4.91 µM, the TGI (NCI-H23 lung) was > 65.7 µM and the GI50 (MOLT-4 leukemia) was 4.37 µM. For the same compound, the TGI (MOLT-4 leukemia) was > 76.4 µM, the GI50 (TK-10 renal) was 12 µM and the TGI (TK-10 renal) was > 100 µM. It also gave a GI50 (SK-MEL-5 melanoma) of 2.6 µM, a TGI (SK-MEL-5 melanoma) of 10.2 µM and a GI50 (HCT-15 colon) of 4.65 µM. For the same compound, the TGI (HCT-15 colon) was 35.3 µM, the GI50 (NCI/ADR-RES ovarian) was 2.95 µM and the TGI (NCI/ADR-RES ovarian) was > 24.1 µM. For the same compound, the GI50 (LOX IMVI melanoma) was 6.94 µM, the TGI (LOX IMVI melanoma) was 63.6 µM and the GI50 (DU-145 prostate) was 14.3 µM. The TGI (DU-145 prostate) was > 100 µM, the GI50 (SF-295 CNS) was 2.71 µM and the TGI (SF-295 CNS) was 19.8 µM. For the same compound, the GI50 (SR leukemia) was 2.77 µM, the TGI (SR leukemia) was > 39.3 µM and the GI50 (UACC-257 melanoma) was 6.19 µM. The TGI (UACC-257 melanoma) was 26.6 µM, the GI50 (RXF 393 renal) was 7.32 µM and the TGI (RXF 393 renal) was 35.2 µM. For the same compound, the GI50 (U251 CNS) was 6.42 µM, the TGI (U251 CNS) was 43.1 µM and the GI50 (SNB-75 CNS) was 9 µM. The TGI (SNB-75 CNS) was 83.2 µM, the GI50 (RPMI-8226 leukemia) was 2.61 µM and the TGI (RPMI-8226 leukemia) was 67.7 µM. For the same compound, the GI50 (EKVX NSCLC) was 4.54 µM, the TGI (EKVX NSCLC) was 97.3 µM and the GI50 (SK-MEL-2 melanoma) was 5.15 µM. The TGI (SK-MEL-2 melanoma) was 20.9 µM, the GI50 (M14 melanoma) was 3.14 µM and the TGI (M14 melanoma) was > 100 µM. It also gave a GI50 (COLO 205 colon) of 5.05 µM, a TGI (COLO 205 colon) of 27.4 µM and a GI50 (A549 NSCLC) of 7.7 µM. The TGI (A549 NSCLC) was > 100 µM, the GI50 (HCC-2998 colon) was 6.59 µM and the TGI (HCC-2998 colon) was 32.5 µM. For the same compound, the GI50 (OVCAR-4 ovarian) was 5.69 µM, the TGI (OVCAR-4 ovarian) was > 100 µM and the GI50 (MDA-MB-435) was 2.02 µM. For the same compound, the TGI (MDA-MB-435) was 5.82 µM, the GI50 (NCI-H226 lung) was 11.5 µM and the TGI (NCI-H226 lung) was 60.4 µM. For the same compound, the GI50 (MDA-MB-231 breast) was 6.81 µM, the TGI (MDA-MB-231 breast) was 49.6 µM and the GI50 (OVCAR-5 ovarian) was 20.6 µM. The TGI (OVCAR-5 ovarian) was > 74 µM, the GI50 (SF-539 CNS) was 3.21 µM and the TGI (SF-539 CNS) was 14.8 µM. The GI50 (A498 renal) was 3.9 µM and the TGI (A498 renal) was 23.3 µM.
